Assay results reported in ChEMBL document CHEMBL3885881, “DrugMatrix”.

Species on record: Rattus norvegicus
Experiment: DrugMatrix - Regimen: Daily Repeat
Assay type: toxicity, organism-based, Sprague-Dawley
Design: regimen Daily Repeat, gender Male, age 6-8 weeks
Settings: in vivo, po, route oral GAVAGE, vehicle 100 % WATER; for ABSOLUTE BASOPHIL / ABSOLUTE EOSINOPHIL / ABSOLUTE LYMPHOCYTE / ABSOLUTE MONOCYTE / ABSOLUTE SEGMENTED NEUTROPHIL / BASOPHIL / EOSINOPHIL / ERYTHROCYTE COUNT / HEMATOCRIT / HEMOGLOBIN / LEUKOCYTE COUNT / LYMPHOCYTE / MEAN CORPUSCULAR HEMOGLOBIN / MEAN CORPUSCULAR HEMOGLOBIN CONCENTRATION / MEAN CORPUSCULAR VOLUME / MONOCYTE / NEUTROPHIL / NUCLEATED RED BLOOD CELLS / PLATELET COUNT: tissue Blood; for ALANINE AMINOTRANSFERASE / ALBUMIN / ALKALINE PHOSPHATASE / ASPARTATE AMINOTRANSFERASE / BLOOD UREA NITROGEN / CARBON DIOXIDE / CHLORIDE / CHOLESTEROL / CREATINE PHOSPHOKINASE / CREATININE / GLUCOSE / LACTATE DEHYDROGENASE / LIPASE / PHOSPHORUS / POTASSIUM / SODIUM / TOTAL BILIRUBIN / TOTAL PROTEIN / URIC ACID: tissue Plasma
[1] = 63 mg/kg, 120 h, dose level High, time 5 day
[2] = […], 72 h, dose 6.3 mg/Kg, dose level Low, time 3 day
[3] = […], 120 h, dose 6.3 mg/Kg, dose level Low, time 5 day

Q: What does the source list for `CNCCC=C1c2ccccc2CCc2ccccc21` [NORTRIPTYLINE]?
A: ABSOLUTE BASOPHIL [1]: 0 CELLS/uL; ABSOLUTE EOSINOPHIL [1]: 0 CELLS/uL; ABSOLUTE LYMPHOCYTE [1]: 11759 CELLS/uL; ABSOLUTE MONOCYTE [1]: 53.67 CELLS/uL; ABSOLUTE SEGMENTED NEUTROPHIL [1]: 987.33 CELLS/uL; BASOPHIL [1]: 0%; EOSINOPHIL [1]: 0%; ERYTHROCYTE COUNT [1]: 5.77 x10E6/uL; HEMATOCRIT [1]: 35.97%; HEMOGLOBIN [1]: 14.67 G/DL; LEUKOCYTE COUNT [1]: 12.8 x10E3/uL; LYMPHOCYTE [1]: 91.67%; MEAN CORPUSCULAR HEMOGLOBIN [1]: 25.43 pg; MEAN CORPUSCULAR HEMOGLOBIN CONCENTRATION [1]: 40.77 G/DL; MEAN CORPUSCULAR VOLUME [1]: 62.33 fL; MONOCYTE [1]: 0.33%; NEUTROPHIL [1]: 8%; NUCLEATED RED BLOOD CELLS [1]: 0 /100WBC; PLATELET COUNT [1]: 1245.67 x10E3/uL; ALANINE AMINOTRANSFERASE [1]: 45.67 u/L; ALBUMIN [1]: 4.27 G/DL; ALKALINE PHOSPHATASE [1]: 460.33 u/L; ASPARTATE AMINOTRANSFERASE [1]: 77.33 u/L; BLOOD UREA NITROGEN [1]: 16.33 mg/dL; CARBON DIOXIDE [1]: 29 mmol/L; CHLORIDE [1]: 101.33 MEQ/L; CHOLESTEROL [1]: 78 mg/dL; CREATINE PHOSPHOKINASE [1]: 346.33 u/L; CREATININE [1]: 0.24 mg/dL; GLUCOSE [1]: 205 mg/dL; LACTATE DEHYDROGENASE [1]: 142 u/L; LIPASE [1]: 9.67 u/L; PHOSPHORUS [1]: 11.23 mg/dL; POTASSIUM [1]: 4.99 MEQ/L; SODIUM [1]: 144.43 MEQ/L; TOTAL BILIRUBIN [1]: 0.17 mg/dL; TOTAL PROTEIN [1]: 6.07 G/DL; URIC ACID [1]: 1.6 mg/dL; ABSOLUTE BASOPHIL [2]: 0 CELLS/uL; ABSOLUTE EOSINOPHIL [2]: 47.67 CELLS/uL; ABSOLUTE LYMPHOCYTE [2]: 13905.67 CELLS/uL; ABSOLUTE MONOCYTE [2]: 0 CELLS/uL; ABSOLUTE SEGMENTED NEUTROPHIL [2]: 1246.67 CELLS/uL; BASOPHIL [2]: 0%; EOSINOPHIL [2]: 0.33%; ERYTHROCYTE COUNT [2]: 5.4 x10E6/uL; HEMATOCRIT [2]: 34.5%; HEMOGLOBIN [2]: 13.8 G/DL; LEUKOCYTE COUNT [2]: 15.2 x10E3/uL; LYMPHOCYTE [2]: 90.67%; MEAN CORPUSCULAR HEMOGLOBIN [2]: 25.57 pg; MEAN CORPUSCULAR HEMOGLOBIN CONCENTRATION [2]: 39.97 G/DL; MEAN CORPUSCULAR VOLUME [2]: 63.87 fL; MONOCYTE [2]: 0%; NEUTROPHIL [2]: 9%; NUCLEATED RED BLOOD CELLS [2]: 0.33 /100WBC; PLATELET COUNT [2]: 1291.33 x10E3/uL; ALANINE AMINOTRANSFERASE [2]: 51.33 u/L; ALBUMIN [2]: 3.87 G/DL; ALKALINE PHOSPHATASE [2]: 385.33 u/L; ASPARTATE AMINOTRANSFERASE [2]: 86.33 u/L; BLOOD UREA NITROGEN [2]: 14.33 mg/dL; CARBON DIOXIDE [2]: 34 mmol/L; CHLORIDE [2]: 99.33 MEQ/L; CHOLESTEROL [2]: 71.33 mg/dL; CREATINE PHOSPHOKINASE [2]: 248 u/L; CREATININE [2]: 0.17 mg/dL; GLUCOSE [2]: 136.67 mg/dL; LACTATE DEHYDROGENASE [2]: 250.33 u/L; LIPASE [2]: 10 u/L; PHOSPHORUS [2]: 11.47 mg/dL; POTASSIUM [2]: 6.49 MEQ/L; SODIUM [2]: 143 MEQ/L; TOTAL BILIRUBIN [2]: 0.23 mg/dL; TOTAL PROTEIN [2]: 5.9 G/DL; URIC ACID [2]: 1.23 mg/dL; ABSOLUTE BASOPHIL [3]: 0 CELLS/uL; ABSOLUTE EOSINOPHIL [3]: 0 CELLS/uL; ABSOLUTE LYMPHOCYTE [3]: 14550 CELLS/uL; ABSOLUTE MONOCYTE [3]: 394 CELLS/uL; ABSOLUTE SEGMENTED NEUTROPHIL [3]: 2022.67 CELLS/uL; BASOPHIL [3]: 0%; EOSINOPHIL [3]: 0%; ERYTHROCYTE COUNT [3]: 5.68 x10E6/uL; HEMATOCRIT [3]: 35.47%; HEMOGLOBIN [3]: 14.63 G/DL; LEUKOCYTE COUNT [3]: 16.97 x10E3/uL; LYMPHOCYTE [3]: 85.67%; MEAN CORPUSCULAR HEMOGLOBIN [3]: 25.87 pg; MEAN CORPUSCULAR HEMOGLOBIN CONCENTRATION [3]: 41.2 G/DL; MEAN CORPUSCULAR VOLUME [3]: 62.7 fL; MONOCYTE [3]: 2.33%; NEUTROPHIL [3]: 12%; NUCLEATED RED BLOOD CELLS [3]: 0 /100WBC; PLATELET COUNT [3]: 1314.33 x10E3/uL; ALANINE AMINOTRANSFERASE [3]: 49.33 u/L; ALBUMIN [3]: 4.63 G/DL; ALKALINE PHOSPHATASE [3]: 430.67 u/L; ASPARTATE AMINOTRANSFERASE [3]: 87.33 u/L; BLOOD UREA NITROGEN [3]: 23 mg/dL; CARBON DIOXIDE [3]: 28 mmol/L; CHLORIDE [3]: 98.33 MEQ/L; CHOLESTEROL [3]: 70.33 mg/dL; CREATINE PHOSPHOKINASE [3]: 246 u/L; CREATININE [3]: 0.24 mg/dL; GLUCOSE [3]: 143.33 mg/dL; LACTATE DEHYDROGENASE [3]: 121 u/L; LIPASE [3]: 11 u/L; PHOSPHORUS [3]: 12.13 mg/dL; POTASSIUM [3]: 7.2 MEQ/L; SODIUM [3]: 141.23 MEQ/L; TOTAL BILIRUBIN [3]: 0.27 mg/dL; TOTAL PROTEIN [3]: 6.6 G/DL; URIC ACID [3]: 2.13 mg/dL
